The record followed here is patent publication US20230226109A1, “METHOD FOR DIFFERENTIATING INNATE LYMPHOID CELLS FOR IMMUNOTHERAPY” (The Board of Trustees of the Leland Stanford Junior …, priority 2019, published 2023).

Test [1] concerns peripheral NK cells. In words: in vitro differentiation of peripheral NK cells into ielLC1-like cells, co-culture with epithelial feeder cells. It is filed as cell-based, human. The procedure:
(A) Protocol for in vitro differentiation of peripheral NK cells into ielLC1-like cells. In brief, PCI13 cells were seeded into a culture plate, then peripheral NK cells were sorted and added to the culture (ratio 10NK:1PCI13) in the presence or not of IL15 (10 ng/mL). After 4 days of co-culture, NK cells were harvested for phenotypic and functional analysis. (B, LEFT) Dot plots show the expression of CD49a and CD103 on gated Lin^−CD45^+CD56^+ NK cells, after culture of NK with PCI13 and IL15 (10 ng/mL) or control conditions. […] (C-D) Functional response of in vitro differentiated ielLC1-like cells. […] (D) After in vitro differentiation, CD49a^− and CD49a^+ cells were sorted and mixed with PCI13 (10^6 NK cells:5.10^6 PCI13) and injected subcutaneously in the flank of NSG mice. Then, tumor volume was measured over time. […] (E) Sorted CD49a^+ and CD49a^− NK cells were assessed for expression of NR4A1, NR4A2, and NR4A3 by qRT-PCR.
In a summary of the protocol for in vitro differentiation of peripheral conventional NK cells into ielLC1-like cells: sorted, enriched, or expanded peripheral NK cells in the presence of IL15 are seeded into culture with cells such as HNSCC, which may be irradiated, or onto plate surfaces that mimic select attributes of these cells. After a suitable period of time for culture, e.g. about 4 days, the differentiated cells are harvested for analysis and effector functions.
• HNSCC cells were harvested from their culture, washed with PBS and counted. • HNSCC cells were then resuspended in media for co-culture, and seeded into plates as follows:
• NK were resuspended with media containing IL-15. • NK cells were added to the co-culture as follows:
• On day 2, half of the supernatant was replaced with fresh media containing IL-15 (20 ng/mL). Harvesting and use of ielLC1-Like Cells. • On day 4, ILC1-like cells were harvested. • Note: The harvested cells were ielLC1-like cells. HNSCC cells were killed during the culture. • ILC1-like cells were washed with PBS and counted. • ILC1-like cells were then used for phenotypic analysis and functional assays.

Test [2] concerns peripheral NK cells. In words: in vivo differentiation of peripheral NK cells injected intra-tumor into PCI13 tumors. On the set-up: species or system NSG mice. Conditions: IL15 5 μg/mouse every 2 days, tumors harvested after 6 days. The procedure: (A) Protocol used to evaluate the in vivo differentiation of peripheral NK cells into ILC1-like cells. In brief, 10^6 PCI13 were subcutaneously injected in the flank of NSG mice, after 10-15 days (when the tumor were palpable) peripheral NK cells were obtained from blood and were injected intra-tumor. Mice were treated or not with IL15 (5 μg/mouse) every 2 days. After 6 days, tumors were harvested and the phenotype and function of intra-tumoral NK cells were assessed. (B) According to the protocol described in (A), sorted Lin^−CD56^+ NK cells were intra-tumor injected. […] (C-D) According to the protocol described in (A), sorted Lin^−CD56^+CD94^+CD16^− Stage 4b NK cells were intra-tumor injected. (C, LEFT) Dot plots show the expression of CD49a and CD103 on NK cells obtained following intra-tumor injection of sorted stage 4b NK cells, in the presence or not of IL15 in vivo. […]
10^6 PCI13 tumor cells were subcutaneously injected in the flank of NSG mice, after 10-15 days (when the tumor were palpable) peripheral NK cells were obtained from blood and were injected intra-tumor. […] After 6 days, tumors were harvested and the phenotype and function of intra-tumoral NK cells were assessed.

A further test concerns NK cells. In words: feeder cell-free culture of NK cells, differentiation into ielLC1-like cells. The format is cell-based, human. Conditions: culture plates with or without E-Cadherin coating, NK cells with IL-15, no feeder cells. An excerpt:
FIG. 7: Co-culture of peripheral NK cells with IL-15 and TGFbeta enhances differentiation into ielLC1-like cells. (A) Using a co-culture system similar to FIG. 5A, NK cells were co-cultured with MDCK (top) or PCI-13 (bottom) in the presence of IL-15 and either the TGFbeta receptor 2 inhibitor ITD1 or the ALK receptor inhibitor SB-431542 or TGFb.
FIG. 11: Feeder cell-free culture of NK cells with extracellular matrix components can induce ielLC1-like cell differentiation. Culture plates with or without E-Cadherin coating was used to culture NK cells with IL-15.

Setting [3] is: NK cells with IL-15 and PCI-13 carcinoma cells.
[4] abbreviates: NK cells co-cultured with MDCK or PCI-13 in the presence of IL-15.

In the case of `Cc1ccccc1N=Nc1ccc(NC(=O)c2ccnn2C)c(C)c1` [CH-223191], in the test with peripheral NK cells [1] (setting [3]), the ielLC1-like cell differentiation entry is listed as “profound reduction of ielLC1-like differentiation”.
Turning to TGFb, in the test on peripheral NK cells [1] (setting [4]), the ielLC1-like cell differentiation result is given as “stimulation of the ielLC1-like phenotype”.
The same measure, in the same setting: in the case of `CCOC(=O)C1=C(C)NC2=C(C(=O)CC(C)(C)C2)C1c1ccc(-c2ccccc2)cc1` (centres unmarked) [ITD1] it was “significant inhibition of ielLC1-like cell differentiation”.
For the molecule `O=Cc1c2[nH]c3ccccc3c2cc2[nH]c3ccccc3c12` [FICZ], the ielLC1-like cell differentiation result in the test with peripheral NK cells [1] (setting [3]) is listed as “promoted the ielLC1-like differentiation”.
For the molecule `NC(=O)c1ccc(-c2nc(-c3ccc4c(c3)OCO4)c(-c3ccccn3)[nH]2)cc1` [SB-431542], the ielLC1-like cell differentiation result in the test on peripheral NK cells [1] (setting [4]) is recorded as “significant inhibition of ielLC1-like cell differentiation”.
Turning to “IL-15: 14-15 kDa glycoprotein cytokine (BioLegend; Cat #570306)”, the “differentiation of peripheral NK into ielLC1-like cells (CD49a+, CD49a+CD103+)” value in the test with peripheral NK cells [1] (NK with PCI13 (ratio 10NK:1PCI13), IL15 10 ng/mL, 4 days) is “promotes differentiation of peripheral NK into ielLC1-like cells”. For the same molecule, the “differentiation of peripheral NK into ielLC1-like cells in vivo” value in the test with peripheral NK cells [2] is given as “promotes differentiation of peripheral NK into ielLC1-like cells in vivo”.

B1: E-Cadherin: coating of culture plates, extracellular matrix component, used without feeder cells (protein, UniProt P12830 155-882, looked up)
Cadherin-1: DWVIPPISCPENEKGPFPKNLVQIKSNKDKEGKVFYSITGQGADTPPVGVFIIERETGWLKVTEPLDRERIATYTLFSHAVSSNGNAVEDPMEILITVTDQNDNKPEFTQEVFKGSVMEGALPGTSVMEVTATDADDDVNTYNAAIAYTILSQDPELPDKNMFTINRNTGVISVVTTGLDRESFPTYTLVVQAADLQGEGLSTTATAVITVTDTNDNPPIFNPTTYKGQVPENEANVVITTLKVTDADAPNTPAWEAVYTILNDDGGQFVVTTNPVNNDGILKTAKGLDFEAKQQYILHVAVTNVVPFEVSLTTSTATVTVDVLDVNEAPIFVPPEKRVEVSEDFGVGQEITSYTAQEPDTFMEQKITYRIWRDTANWLEINPDTGAISTRAELDREDFEHVKNSTYTALIIATDNGSPVATGTGTLLLILSDVNDNAPIPEPRTIFFCERNPKPQVINIIDADLPPNTSPFTAELTHGASANWTIQYNDPTQESIILKPKMALEVGDYKINLKLMDNQNKDQVTTLEVSVCDCEGAAGVCRKAQPVEAGLQIPAILGILGGILALLILILLLLLFLRRRAVVKEPLLPPEDDTRDNVYYYDEEGGGEEDQDFDLSQLHRGLDARPEVTRNDVAPTLMSVPRYLPRPANPDEIGNFIDENLKAADTDPTAPPYDSLLVFDYEGSGSEAASLSSLNSSESDKDQDYDYLNEWGNRFKKLADMYGGGEDD
Take B1: the “formation of ielLC1-like cells” value with NK cells was “enhanced formation of the ielLC1-like cells”.
